From patent US10842892B2, “Methods and apparatus for synthesizing imaging agents, and intermediates thereof” (Lantheus Medical Imaging, Inc., priority 2010, dated 2020)
“And” between values parts separate entries of the source, which are not always exact repeats. Identical values can stand only once.

Tests used:
[1] = tested on: anesthetized naive dogs; experiment: cardiovascular changes in anesthetized naive dogs; type: in vivo, dog; details: intravenous injection, unpublished data
[2] = tested on: myocardial blood flow; details: humans, assumed, equivalent to prior studies; cited from earlier work
[3] = tested on: myocardial ischemia; experiment: imaging agent 1 and ^82Rb PET versus ^99mTc sestamibi SPECT, perfusion defect assessment (phase II); type: in vivo, human
Procedure: Twenty-six patients (20 men) who underwent ^99mTc sestamibi SPECT and imaging agent 1 PET within 6 months at a single center in a phase II clinical trial were compared to 23 patients (matched by summed difference score (SDS) on SPECT) who underwent ^99mTc sestamibi SPECT and ^82Rb PET (25-50 mCi) within 6 months without change in clinical state. PET was performed with imaging agent 1 at rest (2.3-3.9 mCi) followed 60 min or 24 h later with exercise or adenosine stress (7.3-8.6 mCi). Perfusion defects on SPECT and PET were assessed by computer-assisted visual interpretation, using the standard 17 segment, 5 point-scoring model (0=normal; 4=absent uptake). The extent and severity of ischemia (SDS) was derived from the difference between summed stress score (SSS) and summed rest scores (SRS).
Twenty six patients (20 men) underwent SPECT and PET within 6-months. PET was performed with imaging agent 1 at rest (2.3-3.9 mCi) followed 60 min (n=18) or 24 h (n=8) later with exercise (n=16) or adenosine (n=10) stress (7.3-8.6 mCi). Image quality of SPECT and PET was consensually assessed by 2 independent blinded readers and graded as excellent, good, or fair. Stress and rest perfusion defects on SPECT and PET were assessed by the same readers by computer-assisted visual interpretation, using the standard 17 segment, 5 point-scoring model (0=normal; 4=absent uptake). The extent and severity of ischemia (summed difference score (SDS)) was derived from the difference between summed stress (SSS) and summed rest scores (SRS). Image quality with PET was excellent in 24 and good in 2 patients. In contrast, there were 7 excellent, 18 good, and 1 fair quality study, p<0.001 by SPECT. In 14 patients with abnormal SPECT (SSS≥4), mean SDS was greater with PET than with SPECT (9.6±1.8 vs. 5.4±0.7, p=0.02). In all 12 patients with normal SPECT (SSS<4), SDS was zero by PET and SPECT.

[4] = syringe component adsorption of imaging agent 1; type: physicochemical; details: B&D syringe, three hours
Procedure: To further identify the contact surface material that contributed to syringe retention of imaging agent 1, three additional B&D syringes were each filled with a 1 mL solution of imaging agent 1 then maintained at ambient temperature and humidity for a period of three hours. Following transfer of the individual doses as described in Example 1, the syringe barrel and butyl rubber tip plunger were then separated, measured for retained radioactivity and decay corrected. The difference in percent retained activity is statistically significant at the 95% confidence level (i.e. Prob>|t| 0.0017).

[5] = tested on: chronic myocardial infarct (MI); experiment: cardiac PET imaging in control and chronic myocardial infarct rabbits; type: in vivo; details: MI rabbit, images 20-30 min after injection
Description: Male New Zealand rabbits (body weight 2.5-3.5 kg) were purchased from Harlan (Oakwood, Mich.) and maintained in the AAALAC-accredited Animal Care Facility at Lantheus Medical Imaging. The study protocol was approved by the Institutional Animal Care and Use Committee. The procedure of developing a rabbit model of myocardial infarction (MI) was similar to the method described previously (Fujita M, Morimoto Y, Ishihara M, Shimizu M, Takase B, Maehara T et al. A new rabbit model of myocardial infarction without endotracheal intubation. J Surg Res 2004; 116:124-8). Briefly, the rabbit was anesthetized with ketamine (40 mg/Kg, im) and xylazine (9 mg/Kg, im) and placed in a supine position. The surgery was performed under aseptic conditions. A mid-sternotomy was performed carefully to avoid injury of parietal pleura. The pericardial sac was exposed and incised. […]
PET images and cardiovascular parameters were evaluated in both normal and MI rabbits. […] In addition, electrocardiogram (ECG) was also recorded with 3 non-invasive limb leads in lead II configuration using the BIOPAC system. […] After a stabilization period, cardiovascular parameters: MAP, SBP, DBP and ECG, were recorded 5 minutes before imaging agent 1 intravenous injection (˜1.5 mCi) and the recording continued for additional 20 minutes post-injection. […]

In the case of `CC(C)(C)n1ncc(OCc2ccc(COCC[18F])cc2)c(Cl)c1=O` [imaging agent 1, 2-t-butyl-4-chloro-5-[4-(2-(^18F)fluoroethoxymethyl)-benzyloxy]-2H-pyridazin-3-1], the “dose without cardiovascular changes (MAP, HR, left ventricular contractility etc)” value [1] is listed as at most 0.01 mg/kg, the “first pass extraction fraction” value [2] is listed as 0.94 and the SDS ([3]; 12 patients with normal SPECT (SSS<4)) is listed as “zero”. The “mean SDS (summed difference score)” value ([3]; 14 patients with abnormal SPECT (SSS≥4)) was 9.6±1.8, the “image quality excellent, number of patients” value ([3]; 26 patients, 2 blinded readers) was 24 and the “image quality good, number of patients” value ([3]; 26 patients, 2 blinded readers) was 2. For the same compound, the “differences in SDS, PET compared to SPECT” value ([3]; patients with normal SPECT (SSS<4)) was “no differences”, the “Retained Activity in syringe part” value ([4]; Barrel) was 6.9% and 5.5% and 7.0% and the “Retained Activity in syringe part” value ([4]; Plunger (butyl rubber tip)) was 30.9% and 27.7% and 21.8%. The “perfusion defect area in the left ventricular wall” value [5] was “clearly detected”.
